Measurements: patent publication US20260201008A1, “SECRETIN-DERIVED GLP1R SELECTIVE AGONISTS” (GUBRA A/S, priority 2023, published 2026)
Like-named read-outs stand apart in the source and are kept apart here. Numbered stars: 1 amine (or outer) side, 2 acyl side, 3 side chain; on linkers, the order of the positions; unused ones are H or OH. Square brackets hold non-standard residues; d marks the D form. Side chains are listed from the residue outwards. Peptide text beside a SMILES is read from it. * marks the point of attachment. C20 diacid = O=C(O)CCCCCCCCCCCCCCCCCCC(=O)*; γGlu = O=C(O)[C@H](CCC(=O)[*:2])N[*:1]; AEEA = NCCOCCOCC(=O)O; Aib = CC(C)(N)C(=O)O

What was measured:
[1] = Turbidity of crude library peptides (absorbance at 600 nm); type: physicochemical; conditions: Physical stability of peptides
In short: (§1)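 Fibril formation is scored as average ThT fluorescence from duplicate samples monitored for 72 h at 40° C with shaking stress. Turbidity is the absorbance at 600 nm taken before heating. Peptide concentration was 267 μM at pH 4.0 or pH 7.0.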

[2] = Fibril formation of crude library peptides (Thioflavin T); type: physicochemical; parameters: key: average ThT fluorescence emission at 480 nm (ex 450 nm), raw units; conditions: Physical stability of peptides
In short: as §1

[3] = molecular target: GLP1R (Homo sapiens, UniProt P43220); test: hGLP1R potency, cAMP accumulation in CHO-K1 cells stably overexpressing hGLP1R; type: cell-based; parameters: host or cells: CHO-K1; conditions: for EC50: cAMP accumulation; for SCTR EC50/GLP1R EC50 ratio: cAMP accumulation in CHO-K1 cells
GLP1R, sequence (P43220 24-463): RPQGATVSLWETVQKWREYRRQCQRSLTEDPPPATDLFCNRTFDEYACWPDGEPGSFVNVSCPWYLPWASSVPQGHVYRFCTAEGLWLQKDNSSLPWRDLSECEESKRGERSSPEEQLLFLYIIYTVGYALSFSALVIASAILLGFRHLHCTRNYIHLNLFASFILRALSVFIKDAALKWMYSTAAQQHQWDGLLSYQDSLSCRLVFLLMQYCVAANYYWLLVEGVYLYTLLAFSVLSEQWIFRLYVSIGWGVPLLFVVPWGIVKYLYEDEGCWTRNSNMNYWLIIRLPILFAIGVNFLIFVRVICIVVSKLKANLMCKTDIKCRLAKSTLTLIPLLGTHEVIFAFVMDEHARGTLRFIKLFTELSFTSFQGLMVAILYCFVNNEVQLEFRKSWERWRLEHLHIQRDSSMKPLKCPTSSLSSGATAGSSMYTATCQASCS
In short: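 In the presence of 0.5 mM IBMX, compounds stimulated the cells for 30 minutes at room temperature. Accumulated cAMP was then detected by TR-FRET, with EC50 values fitted by variable-slope nonlinear regression.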

[4] = molecular target: SCTR (Homo sapiens, UniProt P47872); test: hSCTR potency, cAMP accumulation in CHO-K1 cells stably overexpressing hSCTR; type: cell-based; parameters: alternatively Euroscreen ES-712-AF; FAST-0161L; host or cells: CHO-K1; conditions: cAMP accumulation
SCTR, sequence (P47872 23-440): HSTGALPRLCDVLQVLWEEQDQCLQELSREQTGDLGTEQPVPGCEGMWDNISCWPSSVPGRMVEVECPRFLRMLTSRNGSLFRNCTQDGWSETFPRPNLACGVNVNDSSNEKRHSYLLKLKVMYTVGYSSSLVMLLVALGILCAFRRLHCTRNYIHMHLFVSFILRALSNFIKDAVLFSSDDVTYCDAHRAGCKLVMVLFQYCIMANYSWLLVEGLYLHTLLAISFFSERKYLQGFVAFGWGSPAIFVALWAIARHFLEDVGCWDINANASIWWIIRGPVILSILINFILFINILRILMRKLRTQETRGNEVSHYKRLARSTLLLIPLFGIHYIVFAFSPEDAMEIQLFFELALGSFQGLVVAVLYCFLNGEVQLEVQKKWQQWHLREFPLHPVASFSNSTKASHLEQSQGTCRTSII
In short: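 In this Gs cAMP assay, stably transfected CHO-K1 hSCTR cells were stimulated at room temperature for 30 min in IBMX-containing buffer. Time-resolved FRET gave the signal. Replicates were increased when the top concentration changed or EC50 values differed 5-fold.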

[5] = CHO-K1 cells overexpressing hGLP1R, read-out: hGLP1R pEC50 (converted)
[6] = selectivity for hGLP1R over hSCTR
[7] = CHO-K1 cells overexpressing hSCTR, read-out: hSCTR pEC50 (converted)

Turbidity (pH 7) [1] | Fibril formation [2] | EC50 [3, 5] [nM] | SCTR EC50/GLP1R EC50 ratio [3, 6] | EC50 [4, 7] [nM] | Selectivity ([3]; SCTR EC50/GLP1R EC50 ratio) | EC50 ([3]; CHO-K1 cells overexpressing hGLP1R, read-out: pEC50 hGLPR1 (converted)) [nM] | EC50 ([4]; CHO-K1 cells overexpressing hSCTR, read-out: pEC50 hSCTR (converted)) [nM] | EC50 ([3]; CHO-K1 cells stably overexpressing hGLP1R, read-out: hGLP1R potency (pEC50) (converted)) [nM] | SCTR EC50/GLP1R EC50 ratio ([3]; selectivity ratio, hSCTR vs hGLP1R) | EC50 ([4]; CHO-K1 cells stably overexpressing hSCTR, read-out: hSCTR potency (pEC50) (converted)) [nM] | SMILES
0.08 | 24482 | 0.126 | 6301 | 794 | – | – | – | – | – | – | CC(C)C[C@H](NC(=O)[C@H](Cc1ccccc1)NC(=O)[C@H](CCCNC(=N)N)NC(=O)[C@H](CCC(N)=O)NC(=O)[C@H](CCC(N)=O)NC(=O)[C@H](C)NC(=O)[C@H](C)NC(=O)[C@H](Cc1ccccc1)NC(=O)[C@H](CCC(=O)O)NC(=O)[C@H](CCCCNC(=O)COCCOCCNC(=O)COCCOCCNC(=O)CC[C@H](NC(=O)CCCCCCCCCCCCCCCCCCC(=O)O)C(=O)O)NC(=O)[C@H](CC(C)C)NC(=O)[C@@H](NC(=O)[C@H](CO)NC(=O)[C@@H](NC(=O)[C@H](CC(=O)O)NC(=O)[C@H](CO)NC(=O)[C@@H](NC(=O)[C@H](Cc1ccccc1)NC(=O)[C@@H](NC(=O)CNC(=O)[C@H](CCC(=O)O)NC(=O)C(C)(C)NC(=O)[C@@H](N)Cc1c[nH]cn1)[C@@H](C)O)[C@@H](C)O)C(C)C)[C@@H](C)O)C(=O)N[C@@H](CCC(=O)O)C(=O)N[C@@H](Cc1c[nH]cn1)C(=O)N[C@@H](CC(C)C)C(=O)N[C@H](C(N)=O)C(C)C [compound 100] (H-H[Aib]EGTFTSDVSTLK([AEEA-AEEA-γGlu-C20 diacid])EFAAQQRFLEHLV-NH2)
0.08 | 4368 | 0.0126 | 1853532 | 25100 | – | – | – | – | – | – | CC(C)C[C@H](NC(=O)[C@H](Cc1ccccc1)NC(=O)[C@H](CCCNC(=N)N)NC(=O)[C@H](CCC(N)=O)NC(=O)[C@H](CC(C)C)NC(=O)C(C)(C)NC(=O)[C@H](C)NC(=O)[C@H](CCC(=O)O)NC(=O)[C@H](CCC(=O)O)NC(=O)[C@H](CCCCNC(=O)COCCOCCNC(=O)COCCOCCNC(=O)CC[C@H](NC(=O)CCCCCCCCCCCCCCCCCCC(=O)O)C(=O)O)NC(=O)[C@H](CC(C)C)NC(=O)[C@H](Cc1ccc(O)cc1)NC(=O)[C@H](CO)NC(=O)[C@@H](NC(=O)[C@H](CC(=O)O)NC(=O)[C@H](CO)NC(=O)[C@@H](NC(=O)[C@H](Cc1ccccc1)NC(=O)[C@@H](NC(=O)CNC(=O)[C@@H](NC(=O)C(C)(C)NC(=O)[C@@H](N)Cc1c[nH]cn1)C(C)C)[C@@H](C)O)[C@@H](C)O)C(C)C)C(=O)N[C@@H](CCC(=O)O)C(=O)N[C@@H](Cc1c[nH]cn1)C(=O)N[C@@H](CC(C)C)C(=O)N[C@H](C(N)=O)C(C)C [compound 155] (H-H[Aib]VGTFTSDVSYLK([AEEA-AEEA-γGlu-C20 diacid])EEA[Aib]LQRFLEHLV-NH2)
0.08 | 3233 | 0.00398 | 59910 | 251 | – | – | – | – | – | – | CC(C)C[C@H](NC(=O)[C@H](Cc1ccc(O)cc1)NC(=O)[C@H](CCCNC(=N)N)NC(=O)[C@H](CCC(N)=O)NC(=O)[C@H](CC(C)C)NC(=O)C(C)(C)NC(=O)[C@H](C)NC(=O)[C@H](CCC(=O)O)NC(=O)[C@H](CCC(=O)O)NC(=O)[C@H](CCCCNC(=O)COCCOCCNC(=O)COCCOCCNC(=O)CC[C@H](NC(=O)CCCCCCCCCCCCCCCCCCC(=O)O)C(=O)O)NC(=O)[C@H](CC(C)C)NC(=O)[C@H](Cc1ccc(O)cc1)NC(=O)[C@H](CO)NC(=O)[C@@H](NC(=O)[C@H](CC(=O)O)NC(=O)[C@H](CO)NC(=O)[C@@H](NC(=O)[C@H](Cc1ccccc1)NC(=O)[C@@H](NC(=O)CNC(=O)[C@H](CCC(=O)O)NC(=O)C(C)(C)NC(=O)[C@@H](N)Cc1c[nH]cn1)[C@@H](C)O)[C@@H](C)O)C(C)C)C(=O)N[C@@H](CCC(=O)O)C(=O)N[C@@H](Cc1c[nH]cn1)C(=O)N[C@@H](CC(C)C)C(=O)N[C@H](C(N)=O)C(C)C [compound 141] (H-H[Aib]EGTFTSDVSYLK([AEEA-AEEA-γGlu-C20 diacid])EEA[Aib]LQRYLEHLV-NH2)
0.12 | 1348 | 0.126 | 2902 | 316 | – | – | – | – | – | – | CC[C@H](C)[C@H](NC(=O)[C@H](Cc1ccccc1)NC(=O)[C@H](CCCNC(=N)N)NC(=O)[C@H](CCC(N)=O)NC(=O)[C@H](CC(C)C)NC(=O)[C@H](C)NC(=O)[C@H](C)NC(=O)CNC(=O)[C@H](CCC(=O)O)NC(=O)[C@H](CC(C)C)NC(=O)[C@H](CC(C)C)NC(=O)[C@H](CCCNC(=N)N)NC(=O)[C@H](CO)NC(=O)C(C)(C)NC(=O)[C@H](CC(=O)O)NC(=O)[C@H](CO)NC(=O)[C@@H](NC(=O)[C@H](Cc1ccccc1)NC(=O)[C@@H](NC(=O)CNC(=O)[C@H](CCC(=O)O)NC(=O)C(C)(C)NC(=O)[C@@H](N)Cc1c[nH]cn1)[C@@H](C)O)[C@@H](C)O)C(=O)N[C@@H](CCC(N)=O)C(=O)N[C@@H](Cc1c[nH]c2ccccc12)C(=O)N[C@@H](CC(C)C)C(=O)N[C@H](C(N)=O)C(C)C [compound 104] (H-H[Aib]EGTFTSD[Aib]SRLLEGAALQRFIQWLV-NH2)
0.08 | 12039 | – | – | – | 231739 | 0.0631 | 12600 | – | – | – | CC(C)C[C@H](NC(=O)[C@H](Cc1ccccc1)NC(=O)[C@H](CCCNC(=N)N)NC(=O)[C@H](CCC(N)=O)NC(=O)[C@H](CO)NC(=O)[C@H](C)NC(=O)[C@H](C)NC(=O)C(C)(C)NC(=O)[C@H](CCC(=O)O)NC(=O)[C@H](CCCCNC(=O)COCCOCCNC(=O)COCCOCCNC(=O)CC[C@H](NC(=O)CCCCCCCCCCCCCCCCCCC(=O)O)C(=O)O)NC(=O)[C@H](CC(C)C)NC(=O)[C@H](Cc1ccccc1)NC(=O)[C@H](CO)NC(=O)[C@@H](NC(=O)[C@H](CC(=O)O)NC(=O)[C@H](CO)NC(=O)[C@@H](NC(=O)[C@H](Cc1ccccc1)NC(=O)[C@@H](NC(=O)CNC(=O)[C@H](CCC(=O)O)NC(=O)C(C)(C)NC(=O)[C@@H](N)Cc1c[nH]cn1)[C@@H](C)O)[C@@H](C)O)C(C)C)C(=O)N[C@@H](CCC(=O)O)C(=O)N[C@@H](Cc1c[nH]cn1)C(=O)N[C@@H](CC(C)C)C(=O)N[C@H](C(N)=O)C(C)C [compound 74] (H-H[Aib]EGTFTSDVSFLK([AEEA-AEEA-γGlu-C20 diacid])E[Aib]AASQRFLEHLV-NH2)
0.85 | 260000 | – | – | – | – | – | – | 0.0794 | 468 | 31.6 | CC[C@H](C)[C@H](NC(=O)[C@H](Cc1ccccc1)NC(=O)[C@H](CCCNC(=N)N)NC(=O)[C@H](CCC(N)=O)NC(=O)[C@H](CC(C)C)NC(=O)[C@H](C)NC(=O)[C@H](C)NC(=O)CNC(=O)[C@H](CCC(=O)O)NC(=O)[C@H](CC(C)C)NC(=O)[C@H](CC(C)C)NC(=O)[C@@H](NC(=O)[C@H](CO)NC(=O)[C@H](Cc1c[nH]c2ccccc12)NC(=O)[C@H](CC(=O)O)NC(=O)[C@H](CO)NC(=O)[C@@H](NC(=O)[C@H](Cc1ccccc1)NC(=O)[C@@H](NC(=O)CNC(=O)[C@H](CCC(=O)O)NC(=O)C(C)(C)NC(=O)[C@@H](N)Cc1c[nH]cn1)[C@@H](C)O)[C@@H](C)O)C(C)C)C(=O)N[C@@H](CCC(N)=O)C(=O)N[C@@H](Cc1c[nH]c2ccccc12)C(=O)N[C@@H](CC(C)C)C(=O)N[C@H](C(N)=O)C(C)C [compound 188] (H-H[Aib]EGTFTSDWSVLLEGAALQRFIQWLV-NH2)
0.08 | 4465 | 0.0398 | 41049 | 1580 | – | – | – | – | – | – | CC(C)C[C@H](NC(=O)[C@H](Cc1ccccc1)NC(=O)[C@H](CCCNC(=N)N)NC(=O)[C@H](CCC(N)=O)NC(=O)[C@H](CC(C)C)NC(=O)C(C)(C)NC(=O)[C@H](C)NC(=O)[C@H](CCC(=O)O)NC(=O)[C@H](CCC(=O)O)NC(=O)C(C)(C)NC(=O)[C@H](CC(C)C)NC(=O)[C@H](Cc1ccc(O)cc1)NC(=O)[C@H](CO)NC(=O)[C@@H](NC(=O)[C@H](CC(=O)O)NC(=O)[C@H](CO)NC(=O)[C@@H](NC(=O)[C@H](Cc1ccccc1)NC(=O)[C@@H](NC(=O)CNC(=O)[C@H](CCC(=O)O)NC(=O)C(C)(C)NC(=O)[C@@H](N)Cc1c[nH]cn1)[C@@H](C)O)[C@@H](C)O)C(C)C)C(=O)N[C@@H](CCC(=O)O)C(=O)N[C@@H](CCCCNC(=O)COCCOCCNC(=O)COCCOCCNC(=O)CC[C@H](NC(=O)CCCCCCCCCCCCCCCCCCC(=O)O)C(=O)O)C(=O)N[C@@H](CC(C)C)C(=O)N[C@H](C(N)=O)C(C)C [compound 158] (H-H[Aib]EGTFTSDVSYL[Aib]EEA[Aib]LQRFLEK([AEEA-AEEA-γGlu-C20 diacid])LV-NH2)
